Earlier results on 4 compounds are cited in patent US20150283242A1, “EFFECTIVE PHARMACEUTICAL CARRIER FOR POORLY BIOAVAILABLE DRUGS” (Hovid Berhad, priority 2007, published 2015).

As to `COC1=C(OC)C(=O)C(C/C=C(\C)CC/C=C(\C)CC/C=C(\C)CC/C=C(\C)CC/C=C(\C)CC/C=C(\C)CC/C=C(\C)CC/C=C(\C)CC/C=C(\C)CCC=C(C)C)=C(C)C1=O` [ubiquonone], the “log P (partition coefficient)” value is “more than 10”.

For `COc1ccc2c(c1)c(CC(=O)O)c(C)n2C(=O)c1ccc(Cl)cc1` [indomethacin], the “log P (partition coefficient)” value was 4.27.

`Cc1ccc(C)c(OCCCC(C)(C)C(=O)O)c1` [gemfibrozil]: the “log P (partition coefficient)” value was 4.77.

On to `CC[C@H](C)C(=O)O[C@H]1C[C@H](O)C=C2C=C[C@H](C)[C@H](CC[C@@H](O)C[C@@H](O)CC(=O)O)[C@H]21` [pravastatin], for which the “log P (partition coefficient)” value is given as 2.42.
